Measured values from the NIST ThermoML archive (doi:10.1007/s10765-007-0186-y).

Assay: molar heat capacity at constant pressure
Details: Gas, Flow calorimetry

CC(F)(F)F [1,1,1-trifluoroethane]
Details	molar heat capacity at constant pressure [J/K/mol]
311.15 K, 1600 kPa	120.18
317.15 K, 1800 kPa	125.89
318.15 K, 1600 kPa	111.77
318.15 K, 2000 kPa	139.51
324.15 K, 2200 kPa	145.31
326.15 K, 2400 kPa	161.69
327.15 K, 2400 kPa	160.77
338.15 K, 2400 kPa	130.6
341.15 K, 2200 kPa	117.24
343.15 K, 2400 kPa	124.8
